What was measured:
Type in all cases: cell-based
[1] = test system: HUVEC; assay: HUVEC tube formation assay
Method: (§1) HUVEC or MLEC cells were seeded on Matrigel-coated plates (BD Bioscience). Medium was supplemented with VEGF or protein adducts as indicated, and cells were further incubated at 37° C. for 8 h. Tube formation was observed using a phase contrast inverted microscope, and photographs were taken from each well. The data were quantified by measuring the length of tubes with ImagePro software.

[2] = test system: mouse aortic endothelial cells (MAEC); assay: Mouse aortic ring assay
Method: The mouse aortic ring assay was performed as previously described (Mahabeleshwar, G. H. et al., Methods Mol Med. 129:197-208, 2006).

[3] = test system: HUVEC; assay: Cell adhesion assay
Method: We performed cell adhesion assays as described elsewhere (Byzova, T. V. et al., J Cell Biol. 143(7):2081-2092, 1998). Briefly, 10^4 HUVEC or MLEC cells were added to ligand coated wells of a 96-well plate and incubated for 1 h in the presence of CEP-adduct or VEGF as indicated. The cells were washed with and fixed with 4% paraformaldehyde in PBS. Thereafter cells were contrasted by hematoxylin staining and photographs were taken.

[4] = test system: Mouse Lung Microvascular EC (MLEC); assay: MLEC tube formation assay; conditions: TLR2^−/− EC
Method: Mouse lungs were excised, minced, and digested using a collagenase-dispase reagent (Roche Diagnostic). Digests were strained and the resulting cell suspension was plated on flasks coated with 1 mg/ml fibronectin. Thereafter, endothelial cells were isolated and characterized as described previously (Mahabeleshwar, G. H. et al., Methods Mol Med. 129:197-208, 2006).
as §1

Row | Substance | pro-angiogenic effect, tube formation [1] | pro-angiogenic effect, aortic ring sprouting ([2]; wild type / TLR2^+/+ mice) | EC adhesion stimulation [3] | EC response, tube formation [4] | EC sprouting, aortic ring ([2]; MyD88^−/− cells) | EC response, aortic ring sprouting ([2]; TLR2^−/− mice)
1 | Pam3CSK4 | as effective a stimulator as CEP or VEGF | induced robust sprouting | as effective a stimulator as CEP or VEGF |  |  | 
2 | VEGF |  |  |  | not affected by the lack of TLR2 | not affected by the lack of MyD88 | not affected by the lack of TLR2
